Assay results as given in article PMC10902301, “Interactions between the protein barnase and co-solutes studied by NMR” (Communications Chemistry, 2024).
“And” between values parts separate entries of the source, which are not always exact repeats. Identical values can stand only once. Counter-ions that a name gives are not always drawn.

Assays:
barnase [1] = biological target: T1, barnase (Bacillus amyloliquefaciens, UniProt P00648, H149A); details: for binding to barnase (in words): from curvature of chemical shift profiles; for mL for amide protons (1HN), mean ± standard deviation over residues: single co-solute titration up to 1 M, 5 mM acetate pH 5.8
T1 sequence (P00648 48-157 H149A): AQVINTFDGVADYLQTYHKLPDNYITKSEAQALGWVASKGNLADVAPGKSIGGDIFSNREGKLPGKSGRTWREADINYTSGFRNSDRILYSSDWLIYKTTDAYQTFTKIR
Description: (§1) For each titration point, protein 2D peak positions were measured and loaded into a database. […] We hypothesized that the hyperbolic parts indicate direct binding of the co-solute to the protein, while the linear parts represent indirect effects on the protein chemical shifts caused by interactions of the co-solute with the solvent, which thus leads to altered protein solvation. Linear changes in shift could also arise from co-solute-induced conformational changes in the protein. […] We therefore fitted the data to a sum of two equations: a hyperbolic curve plus a linear change. Fitting to the hyperbolic curve gives a resultant binding affinity, which can be tabulated as either a dissociation constant Kd (with units of concentration) or an association constant Ka (with units of reciprocal concentration). […] Thus in the analysis below, we use Ka when examining binding to the protein surface. We note that the linear change is in fact a binding curve with very weak affinity, and will therefore start to curve at some point. Based on the likely affinities, curvature is unlikely to become apparent until the co-solute reaches a concentration of several M.
(§2) For fitting shift changes to obtain the dissociation constant, one would normally use a quadratic equation[36]:1 Δδobs=Δδmax{([P]i+[L]i+Kd)–[([P]i+[L]i+Kd)^2−4[P]i[L]i]^1/2}/2[P]I
(§3) We have therefore used it throughout. The complete equation used here for fitting the experimental shift changes is therefore3 Δδobs=Δδmax.Li/Kd+Li+mLLi which gives three fitted values for each nucleus: Kd, Δδmax, and mL. mL is the gradient of the linear component, and gives information on the indirect effect of the co-solute on protein chemical shifts via its effect on solvent. […] We discuss later the significance of mL: for present purposes, it is an empirical parameter that describes how the co-solute affects the protein indirectly via solvent.
(§4) For these reasons, all experiments were carried out using 5 mM acetate, pH 5.8, conditions that gave reproducible peak positions while using only a very low concentration of additional solutes.
(§5) Chemical shifts of ^1HN, ^15N, and ^13C’ were measured and fitted to Eq. (3).

protein surfaces = details: molecular dynamics; ref Vrbka et al J Phys Chem B 2006 110:7036-7043; cited from earlier work
barnase [2] = biological target: T1, barnase; assay: biochemical; details: average dissociation constant Kd at thiocyanate binding region, residues 35–46, 81–86; single binding site assumed; pH 5.8
Description: as §1, §2, §3, §4, §5

SMILES: C[N+](C)(C)[O-] [TMAO, trimethylamine N-oxide]
- binding to barnase (in words) (barnase [1]): only very weak binding
- mL for amide protons (1HN), mean ± standard deviation over residues (barnase [1]): +9.7 ± 16.9 ppb/M

SMILES: C[N+](C)(C)CC(=O)O [betaine, N-trimethyl glycine]
- binding to barnase (in words) (barnase [1]): no binding
- average Ka over all nuclei (barnase [1]; osmolyte titrations, average over residues that could be fitted): no evidence of any binding
- mL for amide protons (1HN), mean ± standard deviation over residues (barnase [1]): +4.3 ± 15.9 ppb/M

SMILES: Cl [chloride, sodium chloride]
- contact times with protein surfaces in water (protein surfaces): 0.1-0.8 ns
- binding to barnase (in words) (barnase [1]): overall weaker binding
- mL for amide protons (1HN), mean ± standard deviation over residues (barnase [1]): –16 ± 26 ppb/M

SMILES: CC1=N[C@H](C(=O)O)CCN1 [ectoine]
- binding to barnase (in words) (barnase [1]): very little binding
- mL for amide protons (1HN), mean ± standard deviation over residues (barnase [1]): +16.5 ± 21.3 ppb/M

SMILES: O=S(=O)(O)O [sulfate, sodium sulfate]
- contact times with protein surfaces in water (protein surfaces): 0.1-0.8 ns

SMILES: N#CS [thiocyanate, sodium thiocyanate]
- average Ka (barnase [1]; average over binding-site residues 35–46 and 81–86, 1HN, 15N, 13C' nuclei): about 45 M^−1
- mL for amide protons (1HN), mean ± standard deviation over residues (barnase [1]): –51 ± 51 ppb/M
- Kd (barnase [2]): 22 mM and ~22 mM
